Results from ChEMBL document CHEMBL1201862, “PubChem BioAssay data set” (2004).
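Exposure lasted 48 hours, with cells grown in 96-well plates and compounds tested at five concentrations. GI50 is the concentration that inhibits growth by half.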 Activity calls are given as the source filed them. No stated cut-off is given here; in the data, active = GI50 up to about 1.1 µM and inactive = higher.

Experiments:
Test in all cases: growth of human tumour cells (NCI), 48 h
[1] = test system: A498
[2] = test system: A549
[3] = test system: ACHN
[4] = test system: CCRF-CEM
[5] = test system: COLO 205
[6] = test system: DLD-1
[7] = test system: DMS-273
[8] = test system: EKVX
[9] = test system: HCC 2998
[10] = test system: HCT-116
[11] = test system: HCT-15
[12] = test system: HL-60
[13] = test system: HOP-18
[14] = test system: HOP-62
[15] = test system: HOP-92
[16] = test system: HT-29
[17] = test system: IGROV-1
[18] = test system: K562
[19] = test system: KM-20L2
[20] = test system: KM12
[21] = test system: LOX IMVI
[22] = test system: LXFL 529
[23] = test system: M14
[24] = test system: M19-MEL
[25] = test system: MOLT-4
[26] = test system: Malme-3M
[27] = test system: NCI-H226
[28] = test system: NCI-H23
[29] = test system: NCI-H460
[30] = test system: OVCAR-3
[31] = test system: OVCAR-4
[32] = test system: OVCAR-5
[33] = test system: OVCAR-8
[34] = test system: RPMI-8226
[35] = test system: RXF 393
[36] = test system: SF-268
[37] = test system: SF-295
[38] = test system: SF-539
[39] = test system: SK-MEL-28
[40] = test system: SK-MEL-2
[41] = test system: SK-MEL-5
[42] = test system: SK-OV-3
[43] = test system: SN12C
[44] = test system: SNB-75
[45] = test system: SNB-78
[46] = test system: SR
[47] = test system: SW-620
[48] = test system: TK-10
[49] = test system: U-251
[50] = test system: UACC-257
[51] = test system: UACC-62
[52] = test system: UO-31
[53] = test system: DMS-114
[54] = test system: SNB-19
[55] = test system: 786-0
[56] = test system: CAKI-1
[57] = test system: NCI-H522

## Cc1ccc(Sc2ccccc2[N+](=O)[O-])cc1
[1]
  GI50: 47.6 µM (inactive)
[2]
  GI50: 35 µM (inactive)
[3]
  GI50: 43.7 µM (inactive)
[4]
  GI50: 30.9 µM (inactive)
[5]
  GI50: 23.4 µM (inactive)
[6]
  GI50: 32.4 µM (inactive)
[7]
  GI50: 28.6 µM (inactive)
[8]
  GI50: 28.6 µM (inactive)
[9]
  GI50: 21 µM (inactive)
[10]
  GI50: 27.5 µM (inactive)
[11]
  GI50: 20 µM
[12]
  GI50: 21 µM (inactive)
[13]
  GI50: > 100 µM (inactive)
[14]
  GI50: 32.1 µM (inactive)
[15]
  GI50: 19.4 µM (inactive)
[16]
  GI50: 19.9 µM (inactive)
[17]
  GI50: 83 µM (inactive)
[18]
  GI50: 18.1 µM (inactive)
[19]
  GI50: 33.3 µM (inactive)
[20]
  GI50: 29.4 µM (inactive)
[21]
  GI50: 27.4 µM (inactive)
[22]
  GI50: 29.6 µM (inactive)
[23]
  GI50: 29 µM (inactive)
[24]
  GI50: 32.1 µM (inactive)
[25]
  GI50: 21.9 µM (inactive)
[26]
  GI50: 32.3 µM (inactive)
[27]
  GI50: 21.7 µM (inactive)
[28]
  GI50: 27.4 µM (inactive)
[29]
  GI50: 31.1 µM (inactive)
[30]
  GI50: 31 µM (inactive)
[31]
  GI50: 27.4 µM (inactive)
[32]
  GI50: 72.3 µM (inactive)
[33]
  GI50: 32.2 µM (inactive)
[34]
  GI50: 42.4 µM (inactive)
[35]
  GI50: 18 µM (inactive)
[36]
  GI50: 38.2 µM (inactive)
[37]
  GI50: 21.6 µM (inactive)
[38]
  GI50: 33 µM (inactive)
[39]
  GI50: 21.9 µM (inactive)
[40]
  GI50: 27.9 µM (inactive)
[41]
  GI50: 15.3 µM (inactive)
[42]
  GI50: 34.4 µM (inactive)
[43]
  GI50: 29.8 µM (inactive)
[44]
  GI50: 5.71 µM (inactive)
[45]
  GI50: 36.6 µM (inactive)
[46]
  GI50: 31.3 µM (inactive)
[47]
  GI50: 25.9 µM (inactive)
[48]
  GI50: 37.8 µM (inactive)
[49]
  GI50: 23 µM (inactive)
[50]
  GI50: 20 µM (inactive)
[51]
  GI50: 37.3 µM (inactive)
[52]
  GI50: 28.8 µM (inactive)

## CCc1nnc(-c2nsc3ccccc23)s1
[2]
  GI50: > 100 µM (inactive)
[3]
  GI50: > 100 µM (inactive)
[4]
  GI50: 42.5 µM (inactive)
[5]
  GI50: > 100 µM (inactive)
[53]
  GI50: > 100 µM (inactive)
[7]
  GI50: > 100 µM (inactive)
[8]
  GI50: 23 µM (inactive)
[9]
  GI50: > 100 µM (inactive)
[10]
  GI50: > 100 µM (inactive)
[11]
  GI50: 72.4 µM
[12]
  GI50: > 100 µM (inactive)
[13]
  GI50: > 100 µM (inactive)
[14]
  GI50: > 100 µM (inactive)
[15]
  GI50: 69.5 µM (inactive)
[16]
  GI50: > 100 µM (inactive)
[17]
  GI50: 76.9 µM (inactive)
[18]
  GI50: 54.7 µM (inactive)
[19]
  GI50: 63.5 µM (inactive)
[20]
  GI50: > 100 µM (inactive)
[21]
  GI50: > 100 µM (inactive)
[22]
  GI50: > 100 µM (inactive)
[23]
  GI50: > 100 µM (inactive)
[25]
  GI50: 38.5 µM (inactive)
[28]
  GI50: > 100 µM (inactive)
[29]
  GI50: > 100 µM (inactive)
[30]
  GI50: 24.1 µM (inactive)
[31]
  GI50: > 100 µM (inactive)
[32]
  GI50: > 100 µM (inactive)
[33]
  GI50: > 100 µM (inactive)
[34]
  GI50: 45.4 µM (inactive)
[35]
  GI50: > 100 µM (inactive)
[36]
  GI50: > 100 µM (inactive)
[38]
  GI50: > 100 µM (inactive)
[39]
  GI50: > 100 µM (inactive)
[40]
  GI50: > 100 µM (inactive)
[41]
  GI50: > 100 µM (inactive)
[43]
  GI50: > 100 µM (inactive)
[54]
  GI50: > 100 µM (inactive)
[44]
  GI50: 35.9 µM (inactive)
[45]
  GI50: > 100 µM (inactive)
[46]
  GI50: 53 µM (inactive)
[47]
  GI50: > 100 µM (inactive)
[48]
  GI50: > 100 µM (inactive)
[49]
  GI50: > 100 µM (inactive)
[50]
  GI50: > 100 µM (inactive)
[51]
  GI50: > 100 µM (inactive)
[52]
  GI50: 34 µM (inactive)

## Cc1ccc(-c2cc(O)c3cc4c(cc3n2)OCO4)cc1
[55]
  GI50: 1.78 µM (inactive)
[1]
  GI50: 0.615 µM (active)
[2]
  GI50: 2.02 µM (inactive)
[3]
  GI50: 7.67 µM (inactive)
[56]
  GI50: 3.52 µM (inactive)
[4]
  GI50: 1.05 µM (active)
[5]
  GI50: 0.63 µM (active)
[6]
  GI50: 0.859 µM (active)
[53]
  GI50: 2.48 µM (inactive)
[7]
  GI50: 1.35 µM (inactive)
[8]
  GI50: 4.05 µM (inactive)
[9]
  GI50: 1.42 µM (inactive)
[10]
  GI50: 1.24 µM (inactive)
[11]
  GI50: 0.501 µM
[12]
  GI50: 0.43 µM (active)
[13]
  GI50: 3.07 µM (inactive)
[14]
  GI50: 2.25 µM (inactive)
[15]
  GI50: 1.87 µM (inactive)
[16]
  GI50: 2.18 µM (inactive)
[17]
  GI50: 3.48 µM (inactive)
[18]
  GI50: 0.705 µM (active)
[19]
  GI50: 1.67 µM (inactive)
[20]
  GI50: 0.836 µM (active)
[21]
  GI50: 2.67 µM (inactive)
[22]
  GI50: 0.748 µM (active)
[23]
  GI50: 0.817 µM (active)
[24]
  GI50: 0.805 µM (active)
[25]
  GI50: 2.72 µM (inactive)
[26]
  GI50: 0.52 µM (active)
[27]
  GI50: 1.63 µM (inactive)
[28]
  GI50: 0.916 µM (active)
[29]
  GI50: 0.82 µM (active)
[57]
  GI50: 1.63 µM (inactive)
[30]
  GI50: 0.929 µM (active)
[31]
  GI50: 8.97 µM (inactive)
[32]
  GI50: 2.61 µM (inactive)
[33]
  GI50: 3.2 µM (inactive)
[34]
  GI50: 2.13 µM (inactive)
[35]
  GI50: 1.44 µM (inactive)
[36]
  GI50: 2.96 µM (inactive)
[37]
  GI50: 2.02 µM (inactive)
[38]
  GI50: 1.31 µM (inactive)
[39]
  GI50: 2.67 µM (inactive)
[40]
  GI50: 1.72 µM (inactive)
[41]
  GI50: 0.35 µM (active)
[42]
  GI50: 1.45 µM (inactive)
[43]
  GI50: 2.56 µM (inactive)
[54]
  GI50: 3.12 µM (inactive)
[44]
  GI50: 1.37 µM (inactive)
[46]
  GI50: 0.973 µM (active)
[47]
  GI50: 0.482 µM (active)
[48]
  GI50: 7.66 µM (inactive)
[49]
  GI50: 1.59 µM (inactive)
[50]
  GI50: > 100 µM (inactive)
[51]
  GI50: 0.729 µM (active)
[52]
  GI50: > 21.3 µM (inactive)
